Experimental data published in PubChem BioAssay (NCI).
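How tested: cells in 96-well plates exposed to compound for 48 hours at five concentrations. Here, GI50 denotes the concentration required for 50% inhibition of growth. TGI denotes the concentration required for complete inhibition of growth.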

Columns and labels:
Experiment in all cases: growth of human tumour cells (NCI), 48 h
[1] = test system: BT-549 breast
[2] = test system: SK-MEL-5 melanoma
[3] = test system: SF-268 CNS
[4] = test system: SNB-19 CNS
[5] = test system: SF-295 CNS
[6] = test system: CAKI-1 renal
[7] = test system: HCT-15 colon
[8] = test system: NCI-H522 lung
[9] = test system: MALME-3M melanoma
[10] = test system: HL-60(TB) leukemia
[11] = test system: SK-OV-3 ovarian
[12] = test system: SK-MEL-2 melanoma
[13] = test system: RPMI-8226 leukemia
[14] = test system: ACHN renal
[15] = test system: UO-31 renal
[16] = test system: HOP-92 NSCLC
[17] = test system: NCI-H23 lung
[18] = test system: MCF7 breast
[19] = test system: K-562 leukemia
[20] = test system: SNB-75 CNS
[21] = test system: NCI-H460 lung
[22] = test system: HCT-116 colon
[23] = test system: DU-145 prostate
[24] = test system: M14 melanoma
[25] = test system: CCRF-CEM leukemia
[26] = test system: IGROV1 ovarian
[27] = test system: SN12C renal
[28] = test system: A498 renal
[29] = test system: MDA-MB-435
[30] = test system: TK-10 renal
[31] = test system: NCI/ADR-RES ovarian
[32] = test system: EKVX NSCLC
[33] = test system: UACC-62 melanoma
[34] = test system: U251 CNS
[35] = test system: SR leukemia
[36] = test system: PC-3 prostate
[37] = test system: OVCAR-4 ovarian
[38] = test system: HCC-2998 colon
[39] = test system: HT29 colon
[40] = test system: HOP-62 NSCLC
[41] = test system: A549 NSCLC
[42] = test system: T-47D breast
[43] = test system: KM12 colon
[44] = test system: NCI-H226 lung
[45] = test system: SF-539 CNS
[46] = test system: HS 578T breast
[47] = test system: MDA-MB-231 breast
[48] = test system: COLO 205 colon
[49] = test system: MOLT-4 leukemia
[50] = test system: SK-MEL-28 melanoma
[51] = test system: SW-620 colon
[52] = test system: LOX IMVI melanoma
[53] = test system: OVCAR-8 ovarian
[54] = test system: OVCAR-5 ovarian
[55] = test system: UACC-257 melanoma
[56] = test system: RXF 393 renal
[57] = test system: OVCAR-3 ovarian
[58] = test system: 786-0 renal

Q: What does the source list for `CCOC(=O)C(=Cc1c(-c2ccccc2)[nH]c2ccccc12)C(=O)OCC`?
A: GI50 [1]: 5.17 µM; TGI [1]: 38.5 µM; GI50 [2]: 3.81 µM; TGI [2]: 14.2 µM; GI50 [3]: 7.46 µM; TGI [3]: 28.5 µM; GI50 [4]: 21.6 µM; TGI [4]: > 64.3 µM; GI50 [5]: 7.27 µM; TGI [5]: 63.8 µM; GI50 [6]: 8.26 µM; TGI [6]: > 49.8 µM; GI50 [7]: 4.07 µM; TGI [7]: 38.4 µM; GI50 [8]: 3.32 µM; TGI [8]: 11.8 µM; GI50 [9]: 8.09 µM; TGI [9]: 22.3 µM; GI50 [10]: 4.19 µM; TGI [10]: 35.5 µM; GI50 [11]: 13.6 µM; TGI [11]: 49.2 µM; GI50 [12]: 4.6 µM; TGI [12]: 17.3 µM; GI50 [13]: 0.219 µM; TGI [13]: 3.28 µM; GI50 [14]: 4.34 µM; TGI [14]: 23.6 µM; GI50 [15]: 3.92 µM; TGI [15]: 17.1 µM; GI50 [16]: 5.47 µM; TGI [16]: > 29.8 µM; GI50 [17]: 2.56 µM; TGI [17]: 11.7 µM; GI50 [18]: 4.49 µM; TGI [18]: 18 µM; GI50 [19]: 3.6 µM; TGI [19]: 24 µM; GI50 [20]: 6.55 µM; TGI [20]: 28.4 µM; GI50 [21]: 3.75 µM; TGI [21]: 13.6 µM; GI50 [22]: 4.25 µM; TGI [22]: 16 µM; GI50 [23]: 9.69 µM; TGI [23]: 28.4 µM; GI50 [24]: 4.16 µM; TGI [24]: 15.6 µM; GI50 [25]: 2.58 µM; TGI [25]: 9.75 µM; GI50 [26]: 5.56 µM; TGI [26]: 23.7 µM; GI50 [27]: 5.04 µM; TGI [27]: 55 µM; GI50 [28]: 15.8 µM; TGI [28]: 55.6 µM; GI50 [29]: 3.36 µM; TGI [29]: 13.6 µM; GI50 [30]: 13.5 µM; TGI [30]: 56.9 µM; GI50 [31]: 2.84 µM; TGI [31]: 14.6 µM; GI50 [32]: 10.8 µM; TGI [32]: 54.1 µM; GI50 [33]: 4.64 µM; TGI [33]: 21.7 µM; GI50 [34]: 4.91 µM; TGI [34]: 35.6 µM; GI50 [35]: 2.09 µM; TGI [35]: 9.43 µM; GI50 [36]: 3.19 µM; TGI [36]: 14.3 µM; GI50 [37]: 5.49 µM; TGI [37]: > 76.5 µM; GI50 [38]: 10.1 µM; TGI [38]: 22.6 µM; GI50 [39]: 4.56 µM; TGI [39]: 17.1 µM; GI50 [40]: 4.27 µM; TGI [40]: 14.1 µM; GI50 [41]: 6.34 µM; TGI [41]: 24.5 µM; GI50 [42]: 2.62 µM; TGI [42]: 8.43 µM; GI50 [43]: 3.51 µM; TGI [43]: 12 µM; GI50 [44]: 11.3 µM; TGI [44]: 34.7 µM; GI50 [45]: 14.4 µM; TGI [45]: 30.9 µM; GI50 [46]: 3.53 µM; TGI [46]: 28.8 µM; GI50 [47]: 5.71 µM; TGI [47]: 34.8 µM; GI50 [48]: 4.81 µM; TGI [48]: 16.3 µM; GI50 [49]: 3.81 µM; TGI [49]: 18.8 µM; GI50 [50]: 7.4 µM; TGI [50]: 21.6 µM; GI50 [51]: 5.57 µM; TGI [51]: 22.1 µM; GI50 [52]: 5.58 µM; TGI [52]: 19.4 µM; GI50 [53]: 4.08 µM; TGI [53]: 17.9 µM; GI50 [54]: 13.4 µM; TGI [54]: 41.8 µM; GI50 [55]: 7.33 µM; TGI [55]: 19.3 µM; GI50 [56]: 3.1 µM; TGI [56]: 12.1 µM; GI50 [57]: 4.21 µM; TGI [57]: 22.6 µM; GI50 [58]: 11.7 µM; TGI [58]: 37.2 µM
